Experimental data from patent publication US8796264B2, “2-piperazin-1-yl-4H-1,3-benzothiazin-4-one derivatives and their use for the treatment of mammalian infections” (Ecole Polytechnique Federale de Lausanne (EPFL), priority 2010, dated 2014).
≈ marks a conversion by molar mass, not a printed value.

Columns and labels:
[1] = tested on: Corynebacterium glutamicum ATCC13032; assay: In vitro inhibitory activity against actinobacteria (MIC); type: cell-based; conditions: read-out: typical MIC values, Corynebacterium glutamicum ATCC13032
M. tuberculosis H37Rv = assay: In vitro inhibitory activity, resazurin reduction assay (MIC99); type: cell-based, Mycobacterium tuberculosis; conditions: Mycobacterium tuberculosis, H37RV; resazurin reduction assay (MIC99); read-out: typical MIC values, M. tuberculosis H37Rv
M. smegmatis = assay: as above; type: cell-based, Mycobacterium smegmatis; conditions: Mycolicibacterium smegmatis, read-out: typical MIC values, M. smegmatis
[2] = Acute toxicity after administration per os; conditions: mouse, in vivo, mice
Protocol: The compounds of the invention are non-toxic after administration per os of doses ranging up to 2000 mg/kg. The compound was well tolerated by animals in the first 24 hours after introduction. […] There were no cases of animal death. LD50 for compounds (2) and (18) is >2000 mg/kg.

[3] = Intrinsic clearance in liver microsomes; conditions: microsomes
Protocol: Next, PBTZ169 and BTZ043 were incubated at a concentration of 1 μg/mL with 0.1 mg of human or mouse liver microsomes (Invitrogen) in order to measure their intrinsic clearance. The relative amounts of the original compound remaining over time were determined by HPLC.

[4] = tested on: M. tuberculosis strain H37Rv; assay: In vivo efficacy in the acute murine TB model; set-up: species or system mice; conditions: for Log of CFU lungs: 4 weeks treatment, intragastric 5 times a week; for Log of CFU lungs / Medium longevity (days) M ± SEM: compounds and BTZ043 50 mg/kg, isoniazid 25 mg/kg; for Result of treatment, macroscopic condition of the lungs: treatment for prescribed time
[5] = tested on: M. tuberculosis strain H37Rv; assay: In vivo efficacy in the chronic murine TB model; set-up: species or system mice; conditions: 50 mg/kg by gavage once daily, six-times/week, 4 weeks

| SMILES | melting point [°C] | MIC [1] [µg/mL] | MIC (M. tuberculosis H37Rv) [ng/mL] | MIC (M. smegmatis) [ng/mL] | LD50 at 7 days [2] [mg/kg] | Intrinsic Clearance (Clint), Human liver microsomes ([3]; human) | Intrinsic Clearance (Clint), Mouse liver microsomes ([3]; mouse) | Log of CFU lungs [4] | Medium longevity (days) M ± SEM [4] | Result of treatment, macroscopic condition of the lungs [4] | Reduction of the CFU load in the lungs and spleens compared to treatment with BTZ043 [5] |
| --- | --- | --- | --- | --- | --- | --- | --- | --- | --- | --- | --- |
| O=c1nc(N2CCN(CCCCOc3ccccc3)CC2)sc2c([N+](=O)[O-])cc(C(F)(F)F)cc12 [Compound 10, 8-nitro-2-[4-(4-phenoxybutyl)piperazin-1-yl]-6-(trifluoromethyl)-4H-1,3-benzothiazin-4-one] | 256 to 258 | ≤ 0.0019 | 1.5 (≈ 0.00295 µM) | ≤ 1.9 |  |  |  |  |  |  |  |
| CC(C)CN1CCN(c2nc(=O)c3cc(C(F)(F)F)cc([N+](=O)[O-])c3s2)CC1 [Compound 4] | 150 to 153 | 0.031 (≈ 0.0744 µM) | ≤ 1.9 | ≤ 1.9 |  |  |  |  |  |  |  |
| CCC(C)N1CCN(c2nc(=O)c3cc(C(F)(F)F)cc([N+](=O)[O-])c3s2)CC1 (centres unmarked) [Compound 5, 2-(4-sec-butylpiperazin-1-yl)-8-nitro-6-(trifluoromethyl)-4H-1,3-benzothiazin-4-one] | 127 to 128 | 0.062 (≈ 0.149 µM) | 0.37 (≈ 0.000889 µM) | ≤ 1.9 |  |  |  |  |  |  |  |
| CCC(CC)N1CCN(c2nc(=O)c3cc(C(F)(F)F)cc([N+](=O)[O-])c3s2)CC1 [Compound 13, 2-[4-(1-ethylpropyl)piperazin-1-yl]-8-nitro-6-(trifluoromethyl)-4H-1,3-benzothiazin-4-one] | 152 to 153 | ≤ 0.0019 | 0.37 (≈ 0.00086 µM) | ≤ 1.9 |  |  |  |  |  |  |  |
| CCCCN1CCN(c2nc(=O)c3cc(C(F)(F)F)cc([N+](=O)[O-])c3s2)CC1 [Compound 3, 2-(4-butylpiperazin-1-yl)-8-nitro-6-(trifluoromethyl)-4H-1,3-benzothiazin-4-one] | 119 to 120 |  | 1.5 (≈ 0.0036 µM) | ≤ 170 |  |  |  |  |  |  |  |
| O=c1nc(N2CCN(CCCOc3ccc(F)cc3)CC2)sc2c([N+](=O)[O-])cc(C(F)(F)F)cc12 [Compound 18, 2-{4-[3-(4-fluorophenoxy)propyl]piperazin-1-yl}-8-nitro-6-(trifluoromethyl)-4H-1,3-benzothiazin-4-one] |  | 0.25 (≈ 0.488 µM) | ≤ 1.9 | ≤ 1.9 | > 2000 |  |  |  |  |  |  |
| NC(=O)N1c2ccccc2C=Cc2ccccc21 [Carbamazepine] |  |  |  |  |  | 0.6 μL/min/mg of protein | 1.1 μL/min/mg of protein |  |  |  |  |
| O=c1nc(N2CCN(CCCC3CCCCC3)CC2)sc2c([N+](=O)[O-])cc(C(F)(F)F)cc12 [Compound 14, 2-[4-(3-cyclohexylpropyl)piperazin-1-yl]-8-nitro-6-(trifluoromethyl)-4H-1,3-benzothiazin-4-one] | 145 to 147 | 0.75 (≈ 1.55 µM) | ≤ 1.9 | ≤ 1.9 |  |  |  |  |  |  |  |
| O=c1nc(N2CCN(CCCOc3ccc(F)cc3)CC2)sc2c([N+](=O)[O-])cc(Cl)cc12 [Compound 20, 6-chloro-2-{4-[3-(4-fluorophenoxy)propyl]piperazin-1-yl}-8-nitro-4H-1,3-benzothiazin-4-one] | 192 to 194 | 0.0031 (≈ 0.00647 µM) | ≤ 1.9 | ≤ 1.9 |  |  |  |  |  |  |  |
| NNC(=O)c1ccncc1 [Izoniazid, Isoniazid, reference compound] |  |  |  |  |  |  |  | 4.34 | Alive at sacrifice | marked improvement |  |
| O=c1nc(N2CCN(C34CC5CC(CC(C5)C3)C4)CC2)sc2c([N+](=O)[O-])cc(C(F)(F)F)cc12 [Compound 15, 2-[4-(1-adamantyl)piperazin-1-yl]-8-nitro-6-(trifluoromethyl)-4H-1,3-benzothiazin-4-one] | 236 to 238 | < 0.5 | 15 (≈ 0.0303 µM) | 62 (≈ 0.125 µM) |  |  |  |  |  |  |  |
| O=c1nc(N2CCN(CCC3CCCCC3)CC2)sc2c([N+](=O)[O-])cc(C(F)(F)F)cc12 [Compound 6, 2-[4-(2-cyclohexylethyl)piperazin-1-yl]-8-nitro-6-(trifluoromethyl)-4H-1,3-benzothiazin-4-one] | 175 to 177 | 0.125 (≈ 0.266 µM) | ≤ 0.19 | ≤ 1.9 |  |  |  |  |  |  |  |
| CCCN1CCN(c2nc(=O)c3cc(C(F)(F)F)cc([N+](=O)[O-])c3s2)CC1 [Compound 19, 2-(4-propylpiperazin-1-yl)-8-nitro-6-(tfluoromethyl)-4H-1,3-benzothiazin-4-one] |  | 0.25 (≈ 0.621 µM) | 3.7 (≈ 0.00919 µM) | ≤ 190 |  |  |  | 4.63 | Alive at sacrifice | marked improvement |  |
| O=c1nc(N2CCN(CCCC3CCCCC3)CC2)sc2c([N+](=O)[O-])cc(Cl)cc12 [Compound 21, 6-chloro-2-[4-(3-cyclohexylpropyl)piperazin-1-yl]-8-nitro-4H-1,3-benzothiazin-4-one] | 194 to 195 | 0.062 (≈ 0.137 µM) | ≤ 1.9 | ≤ 1.9 |  |  |  |  |  |  |  |
| CCCC(C)N1CCN(c2nc(=O)c3cc(C(F)(F)F)cc([N+](=O)[O-])c3s2)CC1 (centres unmarked) [Compound 7, 2-[4-(1-methylbutyl)piperazin-1-yl]-8-nitro-6-(trifluoromethyl)-4H-1,3-benzothiazin-4-one] | 132 to 133 | 0.125 (≈ 0.29 µM) | ≤ 0.19 | ≤ 1.9 |  |  |  |  |  |  |  |
| O=c1nc(N2CCN(C3CCCCC3)CC2)sc2c([N+](=O)[O-])cc(C(F)(F)F)cc12 [Compound 1, 2-(4-cyclonexylpiperazin-1-yl)-8-nitro-6-(trifluoromethyl)-4H-1,3-benzothiazin-4-one] | 189 to 191 |  | 0.75 (≈ 0.0017 µM) | ≤ 170 |  |  |  |  |  |  |  |
| O=c1nc(N2CCN(CCCC3(c4ccc(F)cc4)OCCO3)CC2)sc2c([N+](=O)[O-])cc(C(F)(F)F)cc12 [Compound 17, 2-(4-{3-[2-(4-fluorophenyl)-1,3-dioxolan-2-yl]propyl}piperazin-1-yl)-8-nitro-6-(trifluoromethyl)-4H-1,3-benzothiazin-4-one] | 152 to 154 | 0.25 (≈ 0.44 µM) | 37.5 (≈ 0.066 µM) | 3.75 (≈ 0.0066 µM) |  |  |  |  |  |  |  |
| O=c1nc(N2CCN(Cc3ccncc3)CC2)sc2c([N+](=O)[O-])cc(C(F)(F)F)cc12 [Compound 9, 8-nitro-2-[4-(pyridin-4-ylmethyl)piperazin-1-yl]-6-(trifluoromethyl)-4H-1,3-benzothiazin-4-one] | 200 to 202 | 0.125 (≈ 0.277 µM) | 15 (≈ 0.0332 µM) | 62 (≈ 0.137 µM) |  |  |  |  |  |  |  |
| CCCCCN1CCN(c2nc(=O)c3cc(C(F)(F)F)cc([N+](=O)[O-])c3s2)CC1 [Compound 12] | 133 to 134 | 0.015 (≈ 0.0348 µM) | 0.37 (≈ 0.00086 µM) | ≤ 1.9 |  |  |  |  |  |  |  |
| CCCCCCCN1CCN(c2nc(=O)c3cc(C(F)(F)F)cc([N+](=O)[O-])c3s2)CC1 [Compound 8, 2-(4-heptylpiperazin-1-yl)-8-nitro-6-(trifluoromethyl)-4H-1,3-benzothiazin-4-one] | 125 to 127 | 0.125 (≈ 0.273 µM) | ≤ 0.19 | ≤ 1.9 |  |  |  |  |  |  | significantly more efficacious |
| O=c1nc(N2CCN(CCOCc3ccccc3)CC2)sc2c([N+](=O)[O-])cc(C(F)(F)F)cc12 [Compound 16, 2-{4-[2-(benzyloxy)ethyl]piperazin-1-yl}-8-nitro-6-(trifluoromethyl)-4H-1,3-benzothiazin-4-one] | 117 to 119 | < 0.5 | 19 (≈ 0.0384 µM) | 31 (≈ 0.0627 µM) |  |  |  |  |  |  |  |
| COCCCN1CCN(c2nc(=O)c3cc(C(F)(F)F)cc([N+](=O)[O-])c3s2)CC1 [Compound 11, 2-[4-(3-methoxypropyl)piperazin-1-yl]-8-nitro-6-(trifluoromethyl)-4H-1,3-benzothiazin-4-one] | 133 to 134 | 0.25 (≈ 0.578 µM) | 3.75 (≈ 0.00867 µM) | 31 (≈ 0.0717 µM) |  |  |  |  |  |  |  |
